{"source": "patent US8999970B2", "about": "“Administration of an anti-obesity compound to individuals with renal impairment” (Arena Pharmaceuticals, Inc., priority 2010, dated 2015)", "key": {"[1]": {"test": "Modeled steady state exposures following lorcaserin 10 mg BID (simulations and noncompartmental analysis from QD data)", "conditions": "for AUC24 hr / Cmax / t1/2: 10 mg BID Simulation, Steady State", "description": "To better assess the potential implications of M1 and M5 levels in patients, steady state exposures (i.e. the state of equilibrium obtained at the end of a certain number of dosings) following lorcaserin 10 mg twice daily (BID) dosing were modeled using simulations and noncompartmental analysis based on data from pharmacokinetic studies with once daily (QD) dosing.\nTo better assess the potential implications of M1 levels in subjects with renal impairment, steady state M1 exposure following lorcaserin 10 mg BID administration was modeled using simulations and noncompartmental analysis based upon data from pharmacokinetic studies with once daily (QD) dosing. This modeling is discussed below in Example 5.\nTo better assess the potential implications of M1 and M5 levels, steady state exposures following lorcaserin 10 mg BID dosing were modeled using simulations and noncompartmental analysis based upon data from pharmacokinetic studies with once daily (QD) dosing."}, "[2]": {"test": "Clinical trial APD356-016: plasma and urine pharmacokinetics of lorcaserin, M1 and M5 after a 10 mg dose in subjects with renal impairment", "conditions": "for Ae0-120 / fe0-120: urine; for AUC24 hr / Cmax / t1/2: 10 mg QD Authentic, Day 1", "description": "The interaction of renal insufficiency with the pharmacokinetics, tolerability and safety of lorcaserin were evaluated in a formal PK study in subjects with renal impairment and in the populations studied in phase 2 and phase 3 clinical studies.\nThe pharmacokinetic properties of lorcaserin in subjects with varying degrees of renal impairment were evaluated in clinical trial APD356-016. At the time of study conduct and analysis, subjects were assigned to renal impairment groups based on creatinine clearance calculated using IDEAL body weight (Table 1). This calculation was used to avoid overestimation of creatinine clearance due to the excess body weight (overweight and obese subjects were enrolled in the trial). Summaries of pharmacokinetic properties by group assignment using creatinine clearance calculated using ACTUAL body weights are also provided in the sections that follow.\nThe FDA expects a reasonable margin between anticipated exposures and exposures that may produce toxicity. A reasonable margin can vary depending on the expected toxicity, but generally is an order of magnitude (10 times), but can sometimes be less for mild toxicity.\nTable 13. Summary of Plasma Concentrations (ng/mL) of HSO3-APD356 Metabolite over Time by Group: Severe Renal Impairment Not Receiving Dialysis (see Table 13 next page)\nSubject number 3140-505 was on dialysis and grouped in the end stage renal disease group."}, "[3]": {"conditions": "10 mg dose, Mild, actual BW groups"}, "[4]": {"conditions": "10 mg dose, Mild, ideal BW groups"}, "[5]": {"conditions": "10 mg dose, Moderate, actual BW groups"}, "[6]": {"conditions": "10 mg dose, Moderate, ideal BW groups"}, "[7]": {"conditions": "10 mg dose, Normal, actual BW groups"}, "[8]": {"conditions": "10 mg dose, Normal, ideal BW groups"}, "[9]": {"conditions": "10 mg dose, Severe N = 1, actual BW groups"}, "[10]": {"conditions": "10 mg dose, Severe, ideal BW groups"}}, "note": "Entries after “also recorded” stand apart in the source; their conditions may differ.", "data": [{"molecule": "C[C@H]1CN(S(=O)(=O)O)CCc2ccc(Cl)cc21", "note": "[Compound M1, lorcaserin sulfamate]", "values": [{"measurement": "AUC24 hr", "setting": "[1]; Mild", "result": 4620, "unit": "ng·h/mL"}, {"measurement": "Cmax", "setting": "[1]; Mild", "result": 207, "unit": "ng/mL"}, {"measurement": "t1/2", "setting": "[1]; Mild", "result": 34.6, "unit": "h"}, {"measurement": "AUC24 hr", "setting": "[1]; Moderate", "result": 9670, "unit": "ng·h/mL"}, {"measurement": "Cmax", "setting": "[1]; Moderate", "result": 414, "unit": "ng/mL"}, {"measurement": "t1/2", "setting": "[1]; Moderate", "result": 109, "unit": "h"}, {"measurement": "AUC24 hr", "setting": "[1]; Normal", "result": 2790, "unit": "ng·h/mL"}, {"measurement": "Cmax", "setting": "[1]; Normal", "result": 130, "unit": "ng/mL"}, {"measurement": "t1/2", "setting": "[1]; Normal", "result": 30.0, "unit": "h"}, {"measurement": "AUC24 hr", "setting": "[1]; Severe", "result": "25,500 hr · ng/mL"}, {"measurement": "Cmax", "setting": "[1]; Severe", "result": 1090, "unit": "ng/mL"}, {"measurement": "t1/2", "setting": "[1]; Severe", "result": 99.2, "unit": "h"}, {"measurement": "Level some individuals with severe renal impairment might reach at steady state", "setting": "[1]; five times the modeled mean of 1090 ng/mL", "result": "over 5000 ng/mL; also recorded: more than 5000 ng/mL"}, {"measurement": "% AUC0-inf Extrapolated", "setting": "[2]; [3]", "result": 4.54, "unit": "%"}, {"measurement": "ClNR/F", "setting": "[2]; [3]", "result": 16.7, "unit": "L/h"}, {"measurement": "T1/2z", "setting": "[2]; [3]", "result": 14.6, "unit": "h"}, {"measurement": "% AUC0-inf Extrapolated", "setting": "[2]; [4]", "result": 3.36, "unit": "%"}, {"measurement": "ClNR/F", "setting": "[2]; [4]", "result": 12.8, "unit": "L/h"}, {"measurement": "T1/2z", "setting": "[2]; [4]", "result": 13.0, "unit": "h"}, {"measurement": "% AUC0-inf Extrapolated", "setting": "[2]; [5]", "result": 3.74, "unit": "%"}, {"measurement": "ClNR/F", "setting": "[2]; [5]", "result": 18.2, "unit": "L/h"}, {"measurement": "T1/2z", "setting": "[2]; [5]", "result": 14.9, "unit": "h"}, {"measurement": "% AUC0-inf Extrapolated", "setting": "[2]; [6]", "result": 4.92, "unit": "%"}, {"measurement": "ClNR/F", "setting": "[2]; [6]", "result": 17.0, "unit": "L/h"}, {"measurement": "T1/2z", "setting": "[2]; [6]", "result": 15.9, "unit": "h"}, {"measurement": "% AUC0-inf Extrapolated", "setting": "[2]; [7]", "result": 3.57, "unit": "%"}, {"measurement": "ClNR/F", "setting": "[2]; [7]", "result": 15.1, "unit": "L/h"}, {"measurement": "T1/2z", "setting": "[2]; [7]", "result": 12.1, "unit": "h"}, {"measurement": "% AUC0-inf Extrapolated", "setting": "[2]; [8]", "result": 3.81, "unit": "%"}, {"measurement": "ClNR/F", "setting": "[2]; [8]", "result": 17.1, "unit": "L/h"}, {"measurement": "T1/2z", "setting": "[2]; [8]", "result": 11.0, "unit": "h"}, {"measurement": "% AUC0-inf Extrapolated", "setting": "[2]; [9]", "result": 3.70, "unit": "%"}, {"measurement": "ClNR/F", "setting": "[2]; [9]", "result": 17.2, "unit": "L/h"}, {"measurement": "T1/2z", "setting": "[2]; [9]", "result": 18.8, "unit": "h"}, {"measurement": "% AUC0-inf Extrapolated", "setting": "[2]; [10]", "result": 3.59, "unit": "%"}, {"measurement": "AUC0-inf", "setting": "[2]; [10]", "result": 23600, "unit": "ng·h/mL"}, {"measurement": "ClNR/F", "setting": "[2]; [10]", "result": 19.0, "unit": "L/h"}, {"measurement": "T1/2z", "setting": "[2]; [10]", "result": 15.0, "unit": "h"}, {"measurement": "Ae0-120", "setting": "[2]; [3]", "result": 297, "unit": "µg"}, {"measurement": "fe0-120", "setting": "[2]; [3]", "result": 0.0352}, {"measurement": "Ae0-120", "setting": "[2]; [4]", "result": 326, "unit": "µg"}, {"measurement": "fe0-120", "setting": "[2]; [4]", "result": 0.0386}, {"measurement": "Ae0-120", "setting": "[2]; [5]", "result": 304, "unit": "µg"}, {"measurement": "fe0-120", "setting": "[2]; [5]", "result": 0.0360}, {"measurement": "Ae0-120", "setting": "[2]; [6]", "result": 327, "unit": "µg"}, {"measurement": "fe0-120", "setting": "[2]; [6]", "result": 0.0387}, {"measurement": "Ae0-120", "setting": "[2]; [7]", "result": 257, "unit": "µg"}, {"measurement": "fe0-120", "setting": "[2]; [7]", "result": 0.0304}, {"measurement": "Ae0-120", "setting": "[2]; [8]", "result": 185, "unit": "µg"}, {"measurement": "fe0-120", "setting": "[2]; [8]", "result": 0.0220}, {"measurement": "Ae0-120", "setting": "[2]; [9]", "result": 204, "unit": "µg"}, {"measurement": "fe0-120", "setting": "[2]; [9]", "result": 0.0242}, {"measurement": "Ae0-120", "setting": "[2]; [10]", "result": 280, "unit": "µg"}, {"measurement": "fe0-120", "setting": "[2]; [10]", "result": 0.0332}, {"measurement": "Removal by hemodialysis", "setting": "[2]; ESRD", "result": "not removed; also recorded: not cleared"}, {"measurement": "AUC24 hr", "setting": "[2]; ESRD", "result": 3650, "unit": "ng·h/mL"}, {"measurement": "Cmax", "setting": "[2]; ESRD", "result": 67.6, "unit": "ng/mL"}, {"measurement": "AUC24 hr", "setting": "[2]; Mild", "result": 1940, "unit": "ng·h/mL"}, {"measurement": "Cmax", "setting": "[2]; Mild", "result": 43.5, "unit": "ng/mL"}, {"measurement": "t1/2", "setting": "[2]; Mild", "result": 45.5, "unit": "h"}, {"measurement": "AUC24 hr", "setting": "[2]; Moderate", "result": 2240, "unit": "ng·h/mL"}, {"measurement": "Cmax", "setting": "[2]; Moderate", "result": 34.1, "unit": "ng/mL"}, {"measurement": "t1/2", "setting": "[2]; Moderate", "result": 70.8, "unit": "h"}, {"measurement": "AUC24 hr", "setting": "[2]; Normal", "result": 1270, "unit": "ng·h/mL"}, {"measurement": "Cmax", "setting": "[2]; Normal", "result": 33.6, "unit": "ng/mL"}, {"measurement": "t1/2", "setting": "[2]; Normal", "result": 36.2, "unit": "h"}, {"measurement": "AUC24 hr", "setting": "[2]; Severe", "result": 7850, "unit": "ng·h/mL"}, {"measurement": "Cmax", "setting": "[2]; Severe", "result": 103, "unit": "ng/mL"}, {"measurement": "t1/2", "setting": "[2]; Severe", "result": 220, "unit": "h"}, {"measurement": "Exposure (Geometric Mean Ratio for AUCinf) increase compared to normal subjects", "setting": "[2]; mild (CLcr=51-80 mL/min)", "result": 1.6, "unit": "fold"}, {"measurement": "Terminal half-life prolonged by", "setting": "[2]; mild renal impairment", "result": 26, "unit": "%"}, {"measurement": "Exposure (Geometric Mean Ratio for AUCinf) increase compared to normal subjects", "setting": "[2]; moderate (CLcr=31-50 mL/min)", "result": 2.3, "unit": "fold"}, {"measurement": "Terminal half-life prolonged by", "setting": "[2]; moderate renal impairment", "result": 96, "unit": "%"}, {"measurement": "Exposure (Geometric Mean Ratio for AUCinf) increase compared to normal subjects", "setting": "[2]; severe (CLcr=5-30 mL/min)", "result": 16.7, "unit": "fold"}, {"measurement": "Maximum individual Cmax relative to the mean Cmax", "setting": "[2]; severe renal impairment", "result": "more than five times"}, {"measurement": "Terminal half-life prolonged by", "setting": "[2]; severe renal impairment", "result": 508, "unit": "%"}, {"measurement": "AUC0-inf of subject 3285-009", "setting": "[2]; severe renal impairment (ideal BW)", "result": 101000, "unit": "ng·h/mL"}, {"measurement": "Mean plasma concentration", "setting": "[2]; severe renal impairment, eight individuals, day 1, 4 hours", "result": 99.5, "unit": "ng/mL"}, {"measurement": "Plasma concentration (Cmax) of subject 3285-009", "setting": "[2]; severe renal impairment, day 1, 4 hours", "result": 542, "unit": "ng/mL"}]}]}
